Results as given in paper PMC5688156, “The natural product carolacton inhibits folate-dependent C1 metabolism by targeting FolD/MTHFD” (Nature Communications, 2017).
Converted amounts (≈) assume the structure as drawn.

Legend:
ecFolD ΔK54R55 = biological target: T1, ecFolD ΔK54R55 (Escherichia coli, UniProt P24186, DEL54-55); experiment: ecFolD ΔK54R55 mutant dehydrogenase (DH) enzyme assay; assay type: biochemical, E. coli
T1 construct: His-tag (TEV-cleavable, vector pHis-TEV); made in house; host or cells: E. coli BL21 (DE3)
Experimental: (6R,S)-5,10-Methylene-5,6,7,8-tetrahydrofolic acid ((6R,S)-5,10-CH2-THF) calcium salt and (6R,S)-5,10-Methenyl-5,6,7,8-tetrahydrofolic acid ((6R,S)-5,10-CH=THF) chloride were purchased from Schircks Laboratories (Bauma, Switzerland) and used as substrates for FolD dehydrogenase and cyclohydrolase enzyme assays, respectively. Only the R-isomer, which accounts for 50% of (6R,S)-5,10-CH2-THF and (6R,S)-5,10-CH=THF, respectively, is used by the enzyme. (6R,S)-5,10-CH2-THF was dissolved in N2-spargeled basic buffer (50 mM Tris-HCl (pH 8.0), 100 mM β-mercaptoethanol) as described by Varshney et al.[25]. (6R,S)-5,10-CH=THF was dissolved in DMSO as a 100 mM stock solution.
Because FolD is a bifunctional enzyme, dehydrogenase and cyclohydrolase activities were determined for FolD enzyme kinetics, respectively. The dehydrogenase activity of FolD was assayed for its substrate 5,10-CH2-THF and cofactor NADP^+ (in the case of MTHFD2, NAD^+ was used as the cofactor) based on monitoring the formation of 5,10-CH=THF, while the cyclohydrolase activity of FolD was determined for its substrate 5,10-CH=THF by monitoring the hydrolysis of […]. The enzyme kinetics for the dehydrogenase activity of all FolDs except hsMTHFD1_DC were determined at 30 °C in 50 mM Tris-HCl (pH 7.5), 30 mM β-mercaptoethanol. […]

E. coli (TolC-deficient) = experiment: MIC determination on E. coli (TolC-deficient); assay type: cell-based, Escherichia coli; conditions: 16 h
Experimental: First, the minimum inhibitory concentration (MIC) of carolacton on the E. coliΔtolC strain was determined. We started to develop the resistant mutants on CASO agar (peptone from casein 15 g/L, peptone from soybean 5 g/L, NaCl 5 g/L and agar 15 g/L; pH 7.3) plates supplemented with 4× the MIC concentration of carolacton (0.5 μg/mL) as selection pressure. Different numbers of E. coliΔtolC cells from 1 × 10^7 to 10^9 were spread on caso agar plates with carolacton. After 7 days, E. coliΔtolC colonies, which were resistant to carolacton, started to form on the agar plates. The mutants picked were inoculated in liquid MHB medium (beef extract 2 g/L, peptone from casein 17.5 g/L and corn starch 1.5 g/L, pH 7.4) supplemented with carolacton.
The determination of MICs was performed as described elsewhere. In brief, E. coli strains were treated with carolacton in serial dilution in either the presence or absence of sub-inhibitory concentrations of polymyxin B nonapeptide (PMBN; 3 µg/mL) and/or phenylalanine–arginine β-napthylamide (PAβN; 20 µg/mL) for 16 h at 37 °C in Mueller–Hinton broth. The MICs were assessed by visual inspection of the plates.

KB-3.1 = experiment: Cytotoxicity screening, KB-3.1 (MTT); assay type: cell-based, human; conditions: for EC50: 5 d treatment, MTT
Experimental: Half maximal effective concentrations (EC50) on human cancer cell lines were determined as described elsewhere. Human cancer cell lines were maintained as recommended by the depositor (German Collection of Microorganisms and Cell Cultures, DSMZ) and were treated for 5 d with carolacton in serial dilution. The viability of adherent cell types, HCT-116 (ACC 581), KB-3.1 (ACC-158) and KB-V.1 (ACC-149) was assessed by the addition of MTT tetrazolium salt and absorbance measurement at 570 nm. Histiocytic lymphoma U-937 cells (ACC-5) were maintained in RPMI 1640 medium and transferred into folate-free medium prior to the assay. Cell viability was determined by measuring alamar blue fluorescence emission at 590 nm. The values were referenced and EC50 values were determined by sigmoidal curve fitting. The cell lines KB-3.1 and KB-V.1 are originally derived from HeLa, whereas the latter is an MDR subclone of KB-3.1. They were used to directly compare the activity of carolacton on an mdr1 overexpressing and a sensitive cell line.

CO[C@H](CC(=O)O)[C@@H](C)C(=O)[C@H](C)/C=C(\C)[C@H]1OC(=O)[C@H](O)[C@H](O)/C=C/[C@H](C)CCC[C@@H]1C [carolacton]
sensitivity of residual DH activity to carolacton (ecFolD ΔK54R55): completely insensitive
MIC (E. coli (TolC-deficient); Escherichia coli): 0.13 µg/mL (≈ 0.277 µM)
MIC (E. coli (TolC-deficient); no additive, cation-adjusted Mueller–Hinton broth, 37 °C): 0.125 µg/mL (≈ 0.267 µM)
EC50 (KB-3.1): 11.3 ± 3.6 µM
EC50 (KB-3.1; Homo sapiens, KB 3-1, 120 h): 11 µM
Maximum inhibition (KB-3.1; inhibition of cell growth, 5 d): >80%
